In patent US11077090B2, “Compounds and compositions and uses thereof” (Sunovion Pharmaceuticals Inc., priority 2016, dated 2021):

Test system: compound-treated mice
Assay: Neuropharmacological assay (SmartCube): behavioral activity signature and minimal effective dose
Assay type: in vivo
Settings: for Potency: minimal effective dose (MED), binned / minimal effective dose: MED = dose having 50% or more total activity; for AD: ADHD (probability of activity signature) / AG: analgesic (probability of activity signature) / AX: anxiolytic (probability of activity signature) / CE: cognitive enhancer (probability of activity signature) / DP: anti-depressant (probability of activity signature) / MS: mood stabilizer (probability of activity signature) / PS: anti-psychotic (probability of activity signature) / SD: sedative hypnotic (probability of activity signature) / UN: uncharacterized CNS activity (probability of activity signature): i.p. 15 min before test, most efficacious dose(s); for minimal effective dose: Mus musculus, ip, read-out: Potency: minimal effective dose (MED), binned
From the text: Neurosci. 2011 Sep. 9; 5:103 (doi: 10.3389/fnins.2011.00103) (“Roberds”). As reported in Roberds, because psychiatric diseases generally result from disorders of cell-cell communication or circuitry, intact systems are useful in detecting improvement in disease-relevant endpoints. These endpoints are typically behavioral in nature, often requiring human observation and interpretation. To facilitate testing of multiple compounds for behavioral effects relevant to psychiatric disease, PsychoGenics, Inc. (Tarrytown, N.Y., “PGI”) developed SmartCube™, an automated system in which behaviors of compound-treated mice are captured by digital video and analyzed with computer algorithms. (D. Brunner et al., Drug Discov. Today 2002, 7:S107-S112). PGI Analytical Systems uses data from SmartCube™ to compare the behavioral signature of a test compound to a database of behavioral signatures obtained using a large set of diverse reference compounds. (The composition of the database as well as validation of the method is further described in Roberds). In this way, the neuropharmacological effects of a test compound can be predicted by similarity to major classes of compounds, such as antipsychotics, anxiolytics and antidepressants.
The SmartCube™ system produces an activity signature indicating the probability that the activity of the test compound at the administered dose matches a given class of neuropharmacological agents. (See, e.g., Roberds, FIGS. 2 and 3). The test compound is simultaneously compared against multiple classes of agents; thus, a separate probability is generated for each behavioral effect measured (e.g., anxiolytic activity, analgesic activity, etc.). In the table below, these probabilities are reported for each behavioral effect measured as follows:
where LOQ is the limit of quantification.
Provided compounds were dissolved in a mixture of Pharmasolve™ (N-methyl-2-pyrrolidone), polyethylene glycol and propylene glycol, and were injected i.p. 15 min. before the behavioral test. For each compound, injections were administered at 3 different doses. For each behavioral effect measured, results for the most efficacious dose(s) are presented. In the table below, DP: anti-depressant; AX: anxiolytic; SD: sedative hypnotic; PS: anti-psychotic; MS: mood stabilizer; AD: ADHD; CE: cognitive enhancer; AG: analgesic; UN: uncharacterized CNS activity.
The potency of many of the compounds in the table was also determined in the SmartCube™ system. Test compounds were routinely examined at dose levels of 0.3, 1, 3, 10 and 30 mg per kg (mpk), although the dose range was increased or decreased if necessary to obtain a full dose response curve. A compound's minimal effective dose (MED) is a measure of the compounds potency. The MED was defined as the dose (in mpk) having 50% or more total activity in SmartCube.

Cl.NC1COCc2ccc3c(c21)C1CCC3C1 (single isomer, unassigned) [Example 162]
Potency: minimal effective dose (MED), binned: B (>3 to 10 mpk)
AD: ADHD (probability of activity signature): + (LOQ ≤ + <5%)
AG: analgesic (probability of activity signature): ++ (5% ≤ ++ <25%)
AX: anxiolytic (probability of activity signature): +++ (25% ≤ +++ <50%)
CE: cognitive enhancer (probability of activity signature): ++ (5% ≤ ++ <25%)
DP: anti-depressant (probability of activity signature): + (LOQ ≤ + <5%)
MS: mood stabilizer (probability of activity signature): + (LOQ ≤ + <5%)
PS: anti-psychotic (probability of activity signature): ++ (5% ≤ ++ <25%)
SD: sedative hypnotic (probability of activity signature): + (LOQ ≤ + <5%)
UN: uncharacterized CNS activity (probability of activity signature): +++ (25% ≤ +++ <50%)

Cl.NC1COCc2ccc3c(c21)C1CCC3C1 (single isomer, unassigned) [Example 163]
Potency: minimal effective dose (MED), binned: B (>3 to 10 mpk)
AD: ADHD (probability of activity signature): + (LOQ ≤ + <5%)
AG: analgesic (probability of activity signature): ++ (5% ≤ ++ <25%)
AX: anxiolytic (probability of activity signature): ++ (5% ≤ ++ <25%)
CE: cognitive enhancer (probability of activity signature): ++ (5% ≤ ++ <25%)
DP: anti-depressant (probability of activity signature): ++ (5% ≤ ++ <25%)
MS: mood stabilizer (probability of activity signature): + (LOQ ≤ + <5%)
PS: anti-psychotic (probability of activity signature): +++ (25% ≤ +++ <50%)
SD: sedative hypnotic (probability of activity signature): ++ (5% ≤ ++ <25%)
UN: uncharacterized CNS activity (probability of activity signature): +++ (25% ≤ +++ <50%)

Cl.NC1COCc2ccc3c(c21)C1CCC3C1 (single isomer, unassigned) [Example 164]
Potency: minimal effective dose (MED), binned: B (>3 to 10 mpk)
AD: ADHD (probability of activity signature): + (LOQ ≤ + <5%)
AG: analgesic (probability of activity signature): ++ (5% ≤ ++ <25%)
AX: anxiolytic (probability of activity signature): +++ (25% ≤ +++ <50%)
CE: cognitive enhancer (probability of activity signature): ++ (5% ≤ ++ <25%)
DP: anti-depressant (probability of activity signature): + (LOQ ≤ + <5%)
MS: mood stabilizer (probability of activity signature): + (LOQ ≤ + <5%)
PS: anti-psychotic (probability of activity signature): ++ (5% ≤ ++ <25%)
SD: sedative hypnotic (probability of activity signature): ++ (5% ≤ ++ <25%)
UN: uncharacterized CNS activity (probability of activity signature): +++ (25% ≤ +++ <50%)

Cc1ccc(C)c2c1COC[C@H]2N (single isomer, unassigned) [Example 165]
minimal effective dose: 3 to 10 mg/kg
AD: ADHD (probability of activity signature): + (LOQ ≤ + <5%)
AG: analgesic (probability of activity signature): + (LOQ ≤ + <5%)
AX: anxiolytic (probability of activity signature): ++ (5% ≤ ++ <25%)
CE: cognitive enhancer (probability of activity signature): ++ (5% ≤ ++ <25%)
DP: anti-depressant (probability of activity signature): ++ (5% ≤ ++ <25%)
MS: mood stabilizer (probability of activity signature): + (LOQ ≤ + <5%)
PS: anti-psychotic (probability of activity signature): ++ (5% ≤ ++ <25%)
SD: sedative hypnotic (probability of activity signature): + (LOQ ≤ + <5%)
UN: uncharacterized CNS activity (probability of activity signature): ++++ (50% ≤ ++++)

Cc1ccc(C)c2c1COC[C@@H]2N (single isomer, unassigned) [Example 166]
minimal effective dose: 3 to 10 mg/kg
AD: ADHD (probability of activity signature): + (LOQ ≤ + <5%)
AG: analgesic (probability of activity signature): + (LOQ ≤ + <5%)
AX: anxiolytic (probability of activity signature): ++ (5% ≤ ++ <25%)
CE: cognitive enhancer (probability of activity signature): ++ (5% ≤ ++ <25%)
DP: anti-depressant (probability of activity signature): + (LOQ ≤ + <5%)
MS: mood stabilizer (probability of activity signature): + (LOQ ≤ + <5%)
PS: anti-psychotic (probability of activity signature): ++ (5% ≤ ++ <25%)
SD: sedative hypnotic (probability of activity signature): ++ (5% ≤ ++ <25%)
UN: uncharacterized CNS activity (probability of activity signature): ++++ (50% ≤ ++++)

Cc1cccc2c1[C@H](N)[C@@H](C)OC2 (single isomer, unassigned) [Example 167]
minimal effective dose: < 3 mg/kg
AD: ADHD (probability of activity signature): + (LOQ ≤ + <5%)
AG: analgesic (probability of activity signature): ++ (5% ≤ ++ <25%)
AX: anxiolytic (probability of activity signature): ++ (5% ≤ ++ <25%)
CE: cognitive enhancer (probability of activity signature): + (LOQ ≤ + <5%)
DP: anti-depressant (probability of activity signature): + (LOQ ≤ + <5%)
MS: mood stabilizer (probability of activity signature): + (LOQ ≤ + <5%)
PS: anti-psychotic (probability of activity signature): ++ (5% ≤ ++ <25%)
SD: sedative hypnotic (probability of activity signature): + (LOQ ≤ + <5%)
UN: uncharacterized CNS activity (probability of activity signature): ++++ (50% ≤ ++++)
